From patent US11352396B2, “Antimicrobial peptides and methods of using same” (Zoetis Services LLC, priority 2017, dated 2022)

Tests used:
[1] = tested on: MSSP (Methicillin-Susceptible Staphylococcus pseudintermedius); assay: MIC against selected strains of MSSP; format: cell-based; set-up: key to MIC MSSP 84658 / MIC MSSP 86000 / MIC MSSP 71990 / MIC MSSP 72036 / MIC MSSP 78032: MIC in μM; key to MIC MSSP 86001 / MIC MSSP 72191 / MIC MSSP 76986 / MIC MSSP 77378: MIC in μM (first well with no visible growth); MIC MSSP 49051 / MIC MSSP 81923 / MIC MSSP 84250 / Effect on MSSP 86000 / Effect on MSSP 72036 / Effect on MSSP 78032: unit not given beside the values; conditions: for MIC MSSP 49051: strain 49051, Table 3; for MIC MSSP 71990: strain 71990, Table 3; for MIC MSSP 72036: strain 72036, Table 3; for MIC MSSP 72191: strain 72191, Table 3; for MIC MSSP 76986: strain 76986, Table 3; for MIC MSSP 77378: strain 77378, Table 3; for MIC MSSP 78032: strain 78032, Table 3; for MIC MSSP 81923: strain 81923, Table 3; for MIC MSSP 84250: strain 84250, Table 3; for MIC MSSP 84658: strain 84658, Table 3; for MIC MSSP 86000: strain 86000, Table 3; for MIC MSSP 86001: strain 86001, Table 3
Experimental: (§1) Peptides according to SEQ ID NOs as listed in Table 1 were prepared by a commercial manufacturer (CS Bio, Menlo Park, Calif.) using solid phase synthesis. Antimicrobial activity was assessed by determining the Minimal Inhibitory Concentration (MIC) against S. aureus and E. coli. Briefly, Microbroth MICs were performed using CLSI methodology (VET01-S2). For S. aureus and E. coli ATCC strains, TSA with 5% lysed horse blood agar was used for overnight culturing at 37° C. ambient air. A 0.5 mM stock for each peptide was made with cell culture water, 0.01% acetic acid and serially diluted and spotted (10 μL) in a 96-well plate for in assay dose titration concentration of 50 μM to 0.05 μM. 0.5 McFarland Standard of each strain was diluted 1:250 in Mueller-Hinton Broth (MHB). 90 μL of culture suspension was then added upon drug in the 96-well plate for overnight incubation for 18-20 hours. The MIC was determined visually at the first well of no visible growth at the corresponding concentration.
(§2) Antimicrobial activity of the peptides listed in Table 2 against different strains of MSSP (Methicillin-Susceptible Staphylococcus pseudintermedius) and MRSP (Methicillin-Resistant Staphylococcus pseudintermedius) was further assessed. The results are in Tables 3 and 4, respectively.

[2] = tested on: MRSP (Methicillin-Resistant Staphylococcus pseudintermedius); assay: MIC against selected strains of MRSP; format: cell-based; set-up: key to MIC MRSP 88493 / MIC MRSP 72035 / MIC MRSP 81926: MIC in μM; key to MIC MRSP 71994 / MIC MRSP 79882 / MIC MRSP 80729 / MIC MRSP 86002: MIC in μM (first well with no visible growth); key to MIC MRSP 72192 / MIC MRSP 76923 / MR 71994 / Mr 88493 / MR 72035 / MR 72192 / MR 76923 / MR 79882 / MR 80279 / MR 81926 / MR 86002 / MR 87665: MIC in μM (visual, first well with no growth); MIC MRSP 87655: unit not given beside the values; conditions: for MIC MRSP 71994: strain 71994, Table 4; for MIC MRSP 72035: strain 72035, Table 4; for MIC MRSP 72192: strain 72192, Table 4; for MIC MRSP 76923: strain 76923, Table 4; for MIC MRSP 79882: strain 79882, Table 4; for MIC MRSP 80729: strain 80729, Table 4; for MIC MRSP 81926: strain 81926, Table 4; for MIC MRSP 86002: strain 86002, Table 4; for MIC MRSP 87655: strain 87655, Table 4; for MIC MRSP 88493: strain 88493, Table 4
Experimental: as §1, §2

[3] = tested on: Canine-derived epithelial keratinocyte (CPEK) cells; format: cell-based
Experimental: Safety of the peptides listed in table 2 was determining by measuring cell viability. Canine-derived epithelial keratinocyte (CPEK) cells were propagated to determine cell viability in the presence of peptides. Cells were grown from a frozen stock in CnT-09-5 (with supplements) pre-warmed media in a T75 flask and incubated overnight at 37° C., 5% CO2. Cells were washed with phosphate buffer and replenished with pre-warmed CnT-05-9 media and repeated for several days until cells reached a density of 6.6×10^4 cells/mL. Cells were then transferred to a 384 well plate, allowed to settle and dosed with peptides and melittin control peptide (50 μM to 0.05 μM) and incubated overnight at 37° C., 5% CO2. 0.1% TritonX100 as (HPE) and phosphate buffer alone as (ZPE) were added to the plates to calculate percent effect once the assay was terminated with 10 μL CELLTITER-GLO® assay reagents for a luminescent readout.

[4] = tested on: cRBC; format: cell-based, canine
Experimental: SEQ ID NO: 1 was selected for further research. Toxicity of SEQ ID NO: 1 to eukaryotic blood cells was compared to that of tachyplesin (SEQ ID NO: 13). A standard, well referenced red blood cell hemolysis assay was employed against multiple species to test the lysis potential of the peptides. Red blood cells (RBCs) were prepared and isolated by several centrifuge and wash steps to remove the plasma fraction. A dose titration (50 μM to 0.05 μM) of test peptides and control peptide melittin were spotted from 50 mM stocks in a 384 well plate. Prepared RBCs were incubated with peptide for one hour at 37° C. Percent hemolysis was measured by optical density at 405 nm and utilizing 1% TritonX100 as hundred percent effect (HPE) and phosphate buffer alone as zero percent effect (ZPE).

Q: “11 (KWCFRVCYRGICYRRCND; Artificial Antimicrobial peptide) [compound 11]” was tested. Which “MIC MSSP 49051” value [1] did it give?
A: Its value is 0.8.

Q: What about the “MIC MSSP 71990” value [1] of the same substance?
A: Its value is 1.6.

Q: What about the “MIC MSSP 72036” value [1] of the same substance?
A: Its value is 0.8.

Q: And the “MIC MSSP 72191” value [1]?
A: Its value is 0.8.

Q: And the “MIC MSSP 76986” value [1]?
A: Its value is 0.8.

Q: What about the “MIC MSSP 77378” value [1] of the same substance?
A: The value was 0.4.

Q: And the “MIC MSSP 78032” value [1]?
A: Its value is 0.8.

Q: And the “MIC MSSP 81923” value [1]?
A: Its value is 1.6.

Q: And the “MIC MSSP 84250” value [1]?
A: The value was 0.8.

Q: What about the “MIC MSSP 84658” value [1] of the same substance?
A: Its value is 0.8.

Q: And the “MIC MSSP 86000” value [1]?
A: The value was 0.4.

Q: What about the “MIC MSSP 86001” value [1] of the same substance?
A: Its value is 0.8.

Q: And the “MIC MRSP 71994” value [2]?
A: The value was 1.6.

Q: And the “MIC MRSP 72035” value [2]?
A: Its value is 1.6.

Q: What about the “MIC MRSP 72192” value [2] of the same substance?
A: Its value is 0.8.

Q: And the “MIC MRSP 76923” value [2]?
A: The value was 0.8.

Q: What about the “MIC MRSP 79882” value [2] of the same substance?
A: Its value is 0.8.

Q: And the “MIC MRSP 80729” value [2]?
A: Its value is 0.8.

Q: What about the “MIC MRSP 81926” value [2] of the same substance?
A: Its value is 0.8.

Q: What about the “MIC MRSP 86002” value [2] of the same substance?
A: The value was 0.8.

Q: What about the “MIC MRSP 87655” value [2] of the same substance?
A: The value was 0.8.

Q: And the “MIC MRSP 88493” value [2]?
A: Its value is 1.6.

Q: What about the “CPEK (50 μM)” value [3] of the same substance?
A: The value was 22.0.

Q: What about the “cRBC (50 μM)” value [4] of the same substance?
A: Its value is 57.8.

Q: For “8 (KWCFRVCYRGACYRRCRD; Artificial Antimicrobial peptide) [compound 8]”, which “MIC MSSP 49051” value [1] is on record?
A: The value was 1.6.

Q: And the “MIC MSSP 71990” value [1]?
A: The value was 1.6.

Q: What about the “MIC MSSP 72036” value [1] of the same substance?
A: The value was 1.6.

Q: What about the “MIC MSSP 72191” value [1] of the same substance?
A: The value was 1.6.

Q: And the “MIC MSSP 76986” value [1]?
A: The value was 1.6.

Q: And the “MIC MSSP 77378” value [1]?
A: The value was 0.8.

Q: What about the “MIC MSSP 78032” value [1] of the same substance?
A: Its value is 1.6.

Q: What about the “MIC MSSP 81923” value [1] of the same substance?
A: The value was 3.1.

Q: And the “MIC MSSP 84250” value [1]?
A: Its value is 1.6.

Q: And the “MIC MSSP 84658” value [1]?
A: The value was 1.6.

Q: What about the “MIC MSSP 86000” value [1] of the same substance?
A: The value was 1.6.

Q: What about the “MIC MSSP 86001” value [1] of the same substance?
A: Its value is 1.6.

Q: What about the “MIC MRSP 71994” value [2] of the same substance?
A: The value was 1.6.

Q: And the “MIC MRSP 72035” value [2]?
A: The value was 1.6.

Q: What about the “MIC MRSP 72192” value [2] of the same substance?
A: Its value is 1.6.

Q: And the “MIC MRSP 76923” value [2]?
A: Its value is 1.6.

Q: And the “MIC MRSP 79882” value [2]?
A: The value was 1.6.

Q: And the “MIC MRSP 80729” value [2]?
A: The value was 1.6.

Q: And the “MIC MRSP 81926” value [2]?
A: Its value is 1.6.

Q: And the “MIC MRSP 86002” value [2]?
A: The value was 1.6.

Q: What about the “MIC MRSP 87655” value [2] of the same substance?
A: The value was 1.6.

Q: What about the “MIC MRSP 88493” value [2] of the same substance?
A: Its value is 1.6.

Q: And the “CPEK (50 μM)” value [3]?
A: Its value is 24.6.

Q: And the “cRBC (50 μM)” value [4]?
A: Its value is 30.2.

Q: Which “MIC MSSP 49051” value [1] does the source give for “5 (KWCFYVCYRGICYRRCRD; Artificial Antimicrobial peptide) [compound 5]” here?
A: The value was 1.6.

Q: And the “MIC MSSP 71990” value [1]?
A: The value was 1.6.

Q: What about the “MIC MSSP 72036” value [1] of the same substance?
A: The value was 1.6.

Q: And the “MIC MSSP 72191” value [1]?
A: The value was 1.6.

Q: And the “MIC MSSP 76986” value [1]?
A: The value was 1.6.

Q: What about the “MIC MSSP 77378” value [1] of the same substance?
A: Its value is 0.8.

Q: And the “MIC MSSP 78032” value [1]?
A: Its value is 1.6.

Q: What about the “MIC MSSP 81923” value [1] of the same substance?
A: The value was 1.6.

Q: What about the “MIC MSSP 84250” value [1] of the same substance?
A: Its value is 1.6.

Q: What about the “MIC MSSP 84658” value [1] of the same substance?
A: The value was 1.6.

Q: And the “MIC MSSP 86000” value [1]?
A: The value was 1.6.

Q: And the “MIC MSSP 86001” value [1]?
A: The value was 1.6.

Q: What about the “MIC MRSP 71994” value [2] of the same substance?
A: Its value is 1.6.

Q: What about the “MIC MRSP 72035” value [2] of the same substance?
A: Its value is 1.6.

Q: And the “MIC MRSP 72192” value [2]?
A: Its value is 1.6.

Q: And the “MIC MRSP 76923” value [2]?
A: The value was 1.6.

Q: What about the “MIC MRSP 79882” value [2] of the same substance?
A: Its value is 1.6.

Q: And the “MIC MRSP 80729” value [2]?
A: The value was 1.6.

Q: And the “MIC MRSP 81926” value [2]?
A: The value was 1.6.

Q: And the “MIC MRSP 86002” value [2]?
A: Its value is 1.6.

Q: And the “MIC MRSP 87655” value [2]?
A: Its value is 1.6.

Q: What about the “MIC MRSP 88493” value [2] of the same substance?
A: Its value is 1.6.

Q: And the “CPEK (50 μM)” value [3]?
A: The value was 28.6.

Q: And the “cRBC (50 μM)” value [4]?
A: Its value is 3.1.

Q: What does the source list for “3 (GWCFRVCYRGICYRRCRD; Artificial Antimicrobial peptide) [compound 3]”?
A: MIC MSSP 49051 [1]: 1.6; MIC MSSP 71990 [1]: 1.6; MIC MSSP 72036 [1]: 1.6; MIC MSSP 72191 [1]: 1.6; MIC MSSP 76986 [1]: 1.6; MIC MSSP 77378 [1]: 0.4; MIC MSSP 78032 [1]: 1.6; MIC MSSP 81923 [1]: 1.6; MIC MSSP 84250 [1]: 1.6; MIC MSSP 84658 [1]: 1.6; MIC MSSP 86000 [1]: 1.6; MIC MSSP 86001 [1]: 0.8; MIC MRSP 71994 [2]: 1.6; MIC MRSP 72035 [2]: 1.6; MIC MRSP 72192 [2]: 1.6; MIC MRSP 76923 [2]: 1.6; MIC MRSP 79882 [2]: 0.8; MIC MRSP 80729 [2]: 1.6; MIC MRSP 81926 [2]: 1.6; MIC MRSP 86002 [2]: 1.6; MIC MRSP 87655 [2]: 1.6; MIC MRSP 88493 [2]: 1.6; CPEK (50 μM) [3]: 42.1; cRBC (50 μM) [4]: 67.1
